According to patent US20200157144A1, “ANTIMICROBIAL PEPTIDOMIMETICS” (priority 2017, published 2020):
In brackets after ≈: the same amount, converted by molar mass. Several values for one entry are separate records, joined by “and”; a condition that tells them apart may be missing. Identical values can stand only once. Like-named read-outs stand apart in the source and are kept apart here. Square brackets hold non-standard residues; d marks the D form. Peptide text beside a SMILES is read from it. Bip(4'-Cl) = N[C@@H](Cc1ccc(-c2ccc(Cl)cc2)cc1)C(=O)O; dBip(4'-Cl) = N[C@H](Cc1ccc(-c2ccc(Cl)cc2)cc1)C(=O)O

Tests used:
Experiment in all cases: microbe, parasite or virus in culture
[1] = tested on: Mupirocin-resistant MRSA ATCC-BAA-1556; format: cell-based, Staphylococcus aureus
Procedure: (§1) The MICs of test compounds were determined using the microdilution method from the Clinical and Laboratory Standards Institute (CLSI) guidelines (Clinical and Laboratory Standards Institute. Methods for dilution antimicrobial susceptibility tests for bacteria that grow aerobically; approved standard—ninth edition. Document M07-A9. Vol. 32 No. 2. Wayne, Pa.: CLSI; 2012). Briefly, bacteria were grown fresh from frozen stock in Mueller Hinton 2 (MH2) agar at 37° C. After an overnight incubation, 5 bacteria colonies were selected to grow in cation-adjusted MH2 broth in a shaking incubator (140 RPM) at 37° C. Cells were grown to an optical density (OD600) of 0.15-0.16 determined using a spectrophotometer (Molecular Devices Spectra Max Plus), which corresponds to ˜1×10^8 CFU/mL. Test compounds were constituted into 4 mM DMSO stock solutions and then subjected to 2-fold serial dilution in a 96-well plate with concentrations ranging from 100 to 0.195 μM in duplicates. […] of microbial culture containing ˜1×10^6 CFU/mL of microbes in the respective broths was introduced into each well containing 50 μL of compound solution. After an overnight incubation at 35° C., (220 RPM), OD600 measurements were conducted using the microplate spectrophotometer. The MIC was defined as the lowest antibiotic or compound concentration (μM) required to inhibit bacteria growth.
(§2) The 11th well was used as the growth control well (medium with bacterial inoculums, no antibacterial) while the 12th well was the sterility control well (medium only).

S. aureus NARSA VRS2 = format: cell-based; details: Staphylococcus aureus; S. aureus NARSA VRS2; CAMHB II; read-out: MIC
Procedure: (§3) The antibacterial potency of Compound 34 was measured using the in vitro broth microdilution assay under assay conditions described by the Clinical and Laboratory Standards Institute. […] The test substance was dissolved in 100% DMSO (unless stated below), suspended completely by sonication or vortexing, diluted by 2-fold serial titrations in the same vehicle, for a total of 11 test concentrations. A 4 μL aliquot of each dilution was added to 196 μL of broth medium seeded with the organism suspension in wells of a 96 well plate (bacterial count: 2-8×10^5 colony forming units/mL final). The final volume was 200 μL in each well and the final DMSO concentration was 2%. The incubation time is 1 day at 36° C. All strains tested underwent aerobic respiration. Following incubation, the test plates were visually examined and wells were scored for growth or complete growth inhibition to define the minimum inhibitory concentration. Each test substance was evaluated in duplicate and the results below are the duplicate test values. Vehicle-control and an active reference agent were used as blank and positive controls, respectively.

S. aureus ECL 2963646 = format: cell-based; details: Staphylococcus aureus, ECL2963646; S. aureus ECL 2963646; CAMHB II; read-out: MIC
Procedure: as §3

S. aureus NARSA VRS11b = format: cell-based; details: Staphylococcus aureus; S. aureus NARSA VRS11b; CAMHB II; read-out: MIC
Procedure: as §3

S. aureus NARSA VRS3a = format: cell-based; details: Staphylococcus aureus; S. aureus NARSA VRS3a; CAMHB II; read-out: MIC
Procedure: as §3

S. aureus NARSA VRS1 = format: cell-based; details: Staphylococcus aureus; S. aureus NARSA VRS1; CAMHB II; read-out: MIC
Procedure: as §3

[2] = tested on: Mupirocin-susceptible MRSA ATCC-BAA-2762 (EMRSA15, ST22); format: cell-based, Staphylococcus aureus; details: Staphylococcus aureus
Procedure: as §1, §2

[3] = tested on: Mupirocin-susceptible MRSA ATCC-BAA-1707 (USA400); format: cell-based, Staphylococcus aureus; details: Staphylococcus aureus
Procedure: as §1, §2

[4] = tested on: Mupirocin-susceptible MRSA ATCC-BAA-1756 (USA300); format: cell-based, Staphylococcus aureus; details: Staphylococcus aureus
Procedure: as §1, §2

[5] = tested on: Mupirocin-resistant MRSA ATCC-BAA-1750 (USA200); format: cell-based, Staphylococcus aureus; details: Staphylococcus aureus
Procedure: as §1, §2

[6] = tested on: Mupirocin-susceptible MRSA ATCC-700699 (VISA); format: cell-based, Staphylococcus aureus; details: Staphylococcus aureus
Procedure: as §1, §2

[7] = tested on: Mupirocin-resistant MRSA ATCC-BAA-1708; format: cell-based, Staphylococcus aureus; details: Staphylococcus aureus
Procedure: as §1, §2

[8] = tested on: Mupirocin-susceptible MRSA ATCC-BAA-1754 (ST45); format: cell-based, Staphylococcus aureus; details: Staphylococcus aureus
Procedure: as §1, §2

[9] = tested on: Mupirocin-susceptible MRSA ATCC-33592 (ST239); format: cell-based, Staphylococcus aureus; details: Staphylococcus aureus
Procedure: as §1, §2

[10] = tested on: Mupirocin-susceptible MRSA ATCC-BAA-1681 (USA100); format: cell-based, Staphylococcus aureus; details: Staphylococcus aureus
Procedure: as §1, §2

[11] = tested on: S. aureus (ATCC BAA-1556); details: Staphylococcus aureus, ATCCBAA1556, 24 h, read-out: Mean MIC
Procedure: S. aureus (BAA-1556) was from ATCC. Mupirocin (Cat # M2955) was purchased from TCI chemicals (India) Pvt. […] Ltd, India, Cation adjusted Mueller Hinton broth (CAMHB) and Mueller Hinton Agar (MHA) (Cat # M1657) were from HiMedia Laboratories Pvt. Ltd, India.
The MIC assay was done based on CLSI guidelines in a microtitre plate format (1, 2). Preparation and dilution of Test Item (TI) stock solutions: A 1280 μg/ml stock of Compound 34 was prepared by dissolving 1.28 mg in 1.0 ml of sterile water to obtain the Master Stock (MS) solution. The MS solution was diluted 2-fold to obtain a series of Working Stock (WS) solutions (Table 7). The final concentration of solvent in the assay was 2.5% and the assay volume was […].
Preparing the inoculum: One day before initiation of experiment, an isolated colony of S. aureus (ATCC BAA-1556) was inoculated into sterile CAMHB and incubated at 37° C. to exponential phase. After incubation, the turbidity was adjusted to that of a 0.5 McFarland Standard (approximately equivalent to 1.0×10^8 CFU/ml) and diluted to ˜1.0×10^6 CFU/ml.
MIC Assay: The MIC assay was performed in a 96 well microtitre plate in a total assay volume of 100 μl (Table 7). Each well containing different concentrations of test compound (concentration range between 0.015625 and 16.0 μg/ml) was inoculated with 50 μl of bacterial suspension (prepared from the inoculum grown overnight and adjusted approximately to 5.0×10^5 CFU/ml) along with culture control (CC, culture in broth), broth control (BC, broth only), and vehicle control (VC, 2.5% solvent in broth plus culture). The plate was incubated at 37° C. for 24 hr and turbidity was measured spectrophotometrically (Absorbance microplate reader, BioTek® India, ELx800™) at 600 nm and visually. The experiment was done in duplicates. The inoculum was also plated for enumeration of bacteria. The MIC was defined as the lowest concentration of test compound that prevented bacterial growth (lack of turbidity by OD at 600 nm and visual inspection relative to no growth control).

[12] = Mupirocin-susceptible MRSA ATCC-700699 (VISA), read-out: MIC

## N=C(N)NCCC[C@H](NC(=O)[C@@H](Cc1ccc(-c2ccc(Cl)cc2)cc1)NC(=O)[C@H](CCCNC(=N)N)NC(=O)[C@@H](N)Cc1ccc(-c2ccc(Cl)cc2)cc1)C(N)=O [Compound 44] (H-[Bip(4'-Cl)]R[dBip(4'-Cl)]R-NH2)
[1]; ATCC-BAA-1556, read-out: MIC
  MIC: 6.25 µM (≈ 5.28 µg/mL)

## N=C(N)NCCC[C@H](NC(=O)[C@@H](N)Cc1ccc(-c2ccc(Cl)cc2)cc1)C(=O)N[C@@H](Cc1ccc(-c2ccc(Cl)cc2)cc1)C(=O)N[C@H](CCCNC(=N)N)C(N)=O [Compound 45] (H-[Bip(4'-Cl)]R[Bip(4'-Cl)][dR]-NH2)
[1]; ATCC-BAA-1556, read-out: MIC
  MIC: 6.25 µM (≈ 5.28 µg/mL)

## CC(=O)NC[C@H]1CN(c2ccc(N3CCOCC3)c(F)c2)C(=O)O1 [Linezolid]
S. aureus NARSA VRS2
  MIC: 2 µg/mL and 5.93 µM
S. aureus ECL 2963646
  MIC: 2 µg/mL and 5.93 µM
S. aureus NARSA VRS11b
  MIC: 2 µg/mL and 5.93 µM
S. aureus NARSA VRS3a
  MIC: 4 µg/mL and 11.9 µM
S. aureus NARSA VRS1
  MIC: 2 µg/mL and 5.93 µM
[2]
  MIC: 6.25 µM (≈ 2.11 µg/mL)
[3]
  MIC: 6.25 µM (≈ 2.11 µg/mL)
[1]; Staphylococcus aureus
  MIC: 6.25 µM (≈ 2.11 µg/mL)
[4]
  MIC: 6.25 µM (≈ 2.11 µg/mL)
[5]
  MIC: 6.25 µM (≈ 2.11 µg/mL)
[6]; [12]
  MIC: 3.12 µM (≈ 1.05 µg/mL)
[7]
  MIC: 6.25 µM (≈ 2.11 µg/mL)
[8]
  MIC: 6.25 µM (≈ 2.11 µg/mL)
[9]
  MIC: 6.25 µM (≈ 2.11 µg/mL)
[10]
  MIC: 6.25 µM (≈ 2.11 µg/mL)
[11]
  MIC: 1 µg/mL and 2.96 µM

## C/C(=C\C(=O)OCCCCCCCCC(=O)O)C[C@@H]1OC[C@H](C[C@@H]2O[C@H]2[C@@H](C)[C@H](C)O)[C@@H](O)[C@H]1O [Mupirocin]
[2]; Mupirocin-susceptible MRSA ATCC-BAA-2762 (EMRSA15, ST22), read-out: MIC
  MIC: ≤ 0.2 µM
[3]; Mupirocin-susceptible MRSA ATCC-BAA-1707 (USA400), read-out: MIC
  MIC: ≤ 0.2 µM
[1]; Staphylococcus aureus, Mupirocin-resistant MRSA ATCC-BAA-1556, cation-adjusted MH2 broth, overnight 35° C., OD600, read-out: MIC
  MIC: > 100 µM
[4]; Mupirocin-susceptible MRSA ATCC-BAA-1756 (USA300), read-out: MIC
  MIC: ≤ 0.2 µM
[5]; Mupirocin-resistant MRSA ATCC-BAA-1750 (USA200), read-out: MIC
  MIC: 25 µM (≈ 12.5 µg/mL)
[6]; [12]
  MIC: ≤ 0.2 µM
[7]; Mupirocin-resistant MRSA ATCC-BAA-1708, read-out: MIC
  MIC: > 100 µM
[8]; Mupirocin-susceptible MRSA ATCC-BAA-1754 (ST45), read-out: MIC
  MIC: ≤ 0.2 µM
[9]; Mupirocin-susceptible MRSA ATCC-33592 (ST239), read-out: MIC
  MIC: ≤ 0.2 µM
[10]; Mupirocin-susceptible MRSA ATCC-BAA-1681 (USA100), read-out: MIC
  MIC: ≤ 0.2 µM
[11]
  MIC: > 16 µg/mL and > 32 µM

## C=C[C@]1(C)C[C@@H](OC(=O)CS[C@@H]2C[C@H]3CC[C@@H](C2)N3C)[C@]2(C)[C@H](C)CC[C@]3(CCC(=O)[C@H]32)[C@@H](C)[C@@H]1O [Retapamulin]
[2]
  MIC: ≤ 0.2 µM
[3]
  MIC: ≤ 0.2 µM
[1]; Staphylococcus aureus
  MIC: ≤ 0.2 µM
[4]
  MIC: ≤ 0.2 µM
[5]
  MIC: ≤ 0.2 µM
[6]
  MIC: ≤ 0.2 µM
[7]
  MIC: ≤ 0.2 µM
[8]
  MIC: ≤ 0.2 µM
[9]
  MIC: ≤ 0.2 µM
[10]
  MIC: ≤ 0.2 µM
